Square brackets hold non-standard residues; d marks the D form. Peptide text beside a SMILES is read from it. * marks the point of attachment. dPhe(4-NHCONH2) = NC(=O)Nc1ccc(C[C@@H](N)C(=O)O)cc1; Dihydroorotyl(S) = O=C1C[C@@H](C(=O)*)NC(=O)N1; dPhe(4-Cl) = N[C@H](Cc1ccc(Cl)cc1)C(=O)O; Phe(4-NH2) = Nc1ccc(C[C@H](N)C(=O)O)cc1; d2Nal = N[C@H](Cc1ccc2ccccc2c1)C(=O)O; Lys(iPr) = CC(C)NCCCC[C@H](N)C(=O)O; d3Pal = N[C@H](Cc1cccnc1)C(=O)O
Assays:
[1] = molecular target: GnRH receptors in the pituitary (Homo sapiens, UniProt P30968); settings: prostate cancer patients; literature; cited from earlier work
Sequence of GnRH receptors in the pituitary (P30968 whole entry): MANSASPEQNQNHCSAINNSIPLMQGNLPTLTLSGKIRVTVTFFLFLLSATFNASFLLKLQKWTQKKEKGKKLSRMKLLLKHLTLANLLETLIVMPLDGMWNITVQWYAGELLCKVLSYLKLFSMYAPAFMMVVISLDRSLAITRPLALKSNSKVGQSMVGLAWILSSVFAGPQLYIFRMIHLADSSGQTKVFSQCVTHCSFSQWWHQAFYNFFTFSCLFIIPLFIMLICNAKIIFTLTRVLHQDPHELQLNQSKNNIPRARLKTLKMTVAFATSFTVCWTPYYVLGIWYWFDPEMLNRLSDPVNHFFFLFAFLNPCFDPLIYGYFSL

[2] = De-aggregation experiments with acetic acid: final optical density; format: physicochemical
Experimental: (§1) During the de-aggregation studies the temperature was set to 5, 20, 25, or 35° C. The concentration of degarelix drug substance was 5, 15, 25, or 35 mg/ml. The concentration of acetic acid is 13, 15, 18, 20, 22, 26, 30, 35 or 40%. Optical Density (OD): A sample (1 ml) should be taken at the end of each experiment for measurement of the final optical density. De-aggregation Experiment Protocol, total volume 20 or 69 ml: • 1. Weigh the required amount of stock solution into a beaker. Equilibrate to the desired temperature • 2. Weigh the required amount of acetic acid (100%) into a beaker • 3. Mix the acetic acid (100%) with 3 or 10 ml of milli-Q water and equilibrate to the desired temperature • 4. Mix the degarelix stock solution with the acetic acid/milli-Q water solution • 5. Fill milli-Q water up to 20 or 69 ml • 6. Mix thoroughly • 7. Take samples for viscosity and optical density as described above. Note the appearance of the solution during the experiment

[3] = De-aggregation experiments with acetic acid: viscosity of degarelix stock solution; format: physicochemical
Experimental: as §1, with “Determination of the viscosity of the drug substance and drug product solution is based on the current edition of Ph. Eur. and USP procedure using a rotating viscometer equipped with a cone-plate measuring system with D=60 mm and 1°. The shear rate is increased from 0 to 500 s in 20 steps, using a controlled rate (CR) rotation step program at a constant temperature of 20±0.2° C., making certain that the system reaches equilibrium before the viscosity is recorded at a shear rate of 500 s^−1. During” for “During”, “Viscosity: Take out 1.2 ml” for “Optical Density (OD): A sample (1 ml) should be taken”, “T=1, 60, 120, and 240 min.” for “the end of each experiment for measurement of the final optical density.”

[4] = in vivo
[5] = Reconstitution of degarelix vials with WFI/surfactant solution: OD (absorbance) at 350 nm; format: physicochemical; settings: vials reconstituted to 60 mg/ml degarelix, surfactant 1 mg/ml (0.1%) in WFI, 30 min, 60 min, 120 min, 24 hours
Experimental: Procedure: • Degarelix batch reconstituted using WFI (as control) and using WFI containing the surfactants. The vials are reconstituted to 60 mg/ml degarelix.

[6] = In-vitro release profile (IVD assay) of degarelix vials reconstituted with WFI+Tween 20; format: physicochemical; settings: 40 mg/ml degarelix; Tween 20 at 1, 0.5, 0.25 mg/ml; control WFI
Experimental: Tween 20 concentrations tested:
1 mg/ml; 0.5 mg/ml; 0.25 mg/ml;

[7] = 5 °C, degarelix 5 mg/ml, AcOH 40%
[8] = 5 °C, degarelix 25 mg/ml, AcOH 13%
[9] = 5 °C, degarelix 25 mg/ml, AcOH 15%
[10] = 5 °C, degarelix 25 mg/ml, AcOH 20%
[11] = 5 °C, degarelix 35 mg/ml, AcOH 26%
[12] = 20 °C, degarelix 15 mg/ml, AcOH 30%
[13] = 25 °C, degarelix 25 mg/ml, AcOH 20%
[14] = 35 °C, degarelix 25 mg/ml, AcOH 15%
[15] = 35 °C, degarelix 25 mg/ml, AcOH 18%
[16] = 35 °C, degarelix 25 mg/ml, AcOH 20%
[17] = 35 °C, degarelix 35 mg/ml, AcOH 22%
[18] = 35 °C, degarelix 35 mg/ml, AcOH 26%
[19] = 35 °C, degarelix 35 mg/ml, AcOH 30%
[20] = 35 °C, degarelix 35 mg/ml, AcOH 35%

Compound: CC(=O)N[C@H](Cc1ccc2ccccc2c1)C(=O)N[C@H](Cc1ccc(Cl)cc1)C(=O)N[C@H](Cc1cccnc1)C(=O)N[C@@H](CO)C(=O)N[C@@H](Cc1ccc(NC(=O)[C@@H]2CC(=O)NC(=O)N2)cc1)C(=O)N[C@H](Cc1ccc(NC(N)=O)cc1)C(=O)N[C@@H](CC(C)C)C(=O)N[C@@H](CCCCNC(C)C)C(=O)N1CCC[C@H]1C(=O)N[C@H](C)C(N)=O [Degarelix, D-Alaninamide, N-acetyl-3-(2-naphthalenyl)-D-alanyl-4-chloro-D-phenylaanyl-3-(3-pyridinyl)-D-alanyl-L-seryl-4-[[[(4S)-hexahydro-2,6-dioxo-4-pyrimidinyl]carbonyl]amino]-L-phenylalanyl-4-[(aminocarbonyl)amino]-D-phenylaanyl-L-leucyl-N6-(1-methylethyl)-L-lysyl-L-prolyl-] (Ac-[d2Nal][dPhe(4-Cl)][d3Pal]S[Phe(4-NH2)](Dihydroorotyl(S))[dPhe(4-NHCONH2)]L[Lys(iPr)]P[dA]-NH2)
- testosterone surge or clinical flare [1]: does not cause testosterone surge or clinical flare
- Optical Density Time = 240 min [2, 7]: 0.00
- Optical Density Time = 240 min [2, 8]: 0.10
- Optical Density Time = 240 min [2, 9]: 0.09
- Optical Density Time = 240 min [2, 10]: 0.06
- Optical Density Time = 240 min [2, 11]: 0.08
- Optical Density Time = 240 min [2, 12]: 0.03
- Optical Density Time = 240 min [2, 13]: 0.10
- Optical Density Time = 240 min [2, 14]: 0.86
- Optical Density Time = 240 min [2, 15]: 0.07
- Optical Density Time = 240 min [2, 16]: 0.05
- Optical Density Time = 240 min [2, 17]: 0.13
- Optical Density Time = 240 min [2, 18]: 0.10
- Optical Density Time = 240 min [2, 19]: 0.07
- Optical Density Time = 240 min [2, 20]: 0.08
- Viscosity @ 500 Time = 240 min [3, 7]: 1.9 mPas * s
- Viscosity @ 500 Time = 240 min [3, 8]: 2.3 mPas * s
- Viscosity @ 500 Time = 240 min [3, 9]: 1.9 mPas * s
- Viscosity @ 500 Time = 240 min [3, 10]: 1.7 mPas * s
- Viscosity @ 500 Time = 240 min [3, 11]: 1.9 mPas * s
- Viscosity @ 500 Time = 240 min [3, 12]: 1.8 mPas * s
- Viscosity @ 500 Time = 240 min [3, 13]: 2.0 mPas * s
- Viscosity @ 500 Time = 240 min [3, 14]: 7.2 mPas * s
- Viscosity @ 500 Time = 240 min [3, 15]: 2.1 mPas * s
- Viscosity @ 500 Time = 240 min [3, 16]: 1.7 mPas * s
- Viscosity @ 500 Time = 240 min [3, 17]: 2.1 mPas * s
- Viscosity @ 500 Time = 240 min [3, 18]: 1.9 mPas * s
- Viscosity @ 500 Time = 240 min [3, 19]: 2.0 mPas * s
- Viscosity @ 500 Time = 240 min [3, 20]: 2.1 mPas * s
- sustained release from the depot [4]: sustained release of the active over months

Compound: Polysorbate 20 [Tween 20]
- optical density versus control [5]: reduced the optical density to a level below the control
- in-vitro release profiles [6]: not altered

Source: US11510962B2, “Manufacture of degarelix” (Ferring B.V., priority 2012, dated 2022)
